Measurements: patent US20120219613A1 (priority 2009, published 2012)
Several values for one entry are separate records, joined by “and”; a condition that tells them apart may be missing. Equal values may be shown once. Read-outs that look alike come from different tables or passages of the source.

Legend:
NiV-pVSV = experiment: microbe, parasite or virus in culture; assay type: cell-based, Nipah virus envelope pseudotyped onto VSV
enveloped viruses = details: cited from earlier work
[1] = test system: enveloped viruses, such as influenza, HIV-1 and TBEV; details: cited from earlier work
[2] = Vesicular stomatitis virus, Vero

## CCCN1C(=O)/C(=C/c2ccc(-c3ccccc3)o2)SC1=S [LJ-003, (Z)-3-Propyl-5-(5-phenyl-2-furyl)methylene-4-oxothiazolidine-2-thione]
NiV-pVSV
  IC50: 950 nM
NiV-pVSV; [2]
  IC50: 900 nM

## CN1C(=O)/C(=C/c2ccc(-c3ccccc3)o2)SC1=S [LJ-005, (Z)-3-Methyl-5-(5-phenyl-2-furyl)methylene-4-oxothiazolidine-2-thione]
NiV-pVSV
  IC50: 1220 nM
NiV-pVSV; [2]
  IC50: 1500 nM

## CCN1C(=O)/C(=C/c2ccc(-c3cccc(F)c3)o2)SC1=S [LJ-007, (Z)-3-Ethyl-5-[5-(3-fluorophenyl)-2-furyl]methylene-4-oxothiazolidine-2-thione]
NiV-pVSV
  IC50: 1450 nM
NiV-pVSV; [2]
  IC50: 2500 nM

## CCN1C(=O)/C(=C/c2ccc(-c3ccccc3OC)o2)SC1=S [LJ-010, (Z)-3-Ethyl-5-[5-(2-methoxyphenyl)-2-furyl]methylene-4-oxothiazolidine-2-thione]
NiV-pVSV
  IC50: 400 nM
NiV-pVSV; [2]
  IC50: 800 nM

## CCN1C(=O)/C(=C/c2ccc(-c3cccc(OC)c3)o2)SC1=S [LJ-011, (Z)-3-Ethyl-5-[5-(3-methoxyphenyl)-2-furyl]methylene-4-oxothiazolidine-2-thione]
NiV-pVSV
  IC50: 1160 nM
NiV-pVSV; [2]
  IC50: 1500 nM

## CCN1C(=O)/C(=C/c2ccc(C)o2)SC1=S [LJ-013, (Z)-3-ethyl-5-((5-methylfuran-2-yl)methylene)-2-thioxothiazolidin-4-one]
NiV-pVSV
  IC50 (μM): Inactive

## CCN1C(=O)/C(=C/c2ccco2)SC1=S [LJ-014, (Z)-3-ethyl-5-(furan-2-ylmethylene)-2-thioxothiazolidin-4-one]
NiV-pVSV
  IC50 (μM): Inactive

## CCN1C(=O)/C(=C/c2ccc(-c3ccccc3[N+](=O)[O-])o2)SC1=S [LJ-015, (Z)-3-ethyl-5-((5-(2-nitrophenyl)furan-2-yl)methylene)-2-thioxothiazolidin-4-one]
NiV-pVSV
  IC50: 1030 nM
NiV-pVSV; [2]
  IC50: 1300 nM

## CCN1C(=O)/C(=C/c2ccc(-c3ccccc3O)o2)SC1=S [LJ-016, (Z)-3-Ethyl-5-((5-(2-hydroxyphenyl)furan-2-yl)methylene)-2-thioxothiazolidin-4-one]
NiV-pVSV
  IC50: 2350 nM
  antiviral activity in SAR discussion: tolerated but led to generally lower activity
NiV-pVSV; [2]
  IC50: 2200 nM

## CCN1C(=O)/C(=C/c2ccc(-c3ccccc3N)o2)SC1=S [LJ-017, (Z)-5-((5-(2-Aminophenyl)furan-2-yl)methylene)-3-ethyl-2-thioxothiazolidin-4-one]
NiV-pVSV
  IC50: 1960 nM
  antiviral activity in SAR discussion: tolerated but led to generally lower activity
NiV-pVSV; [2]
  IC50: 3400 nM

## CCN1C(=O)/C(=C/c2ccc(-c3ccccc3)s2)SC1=S [LJ-018, (Z)-3-ethyl-5-((5-phenylthiophen-2-yl)methylene)-2-thioxothiazolidin-4-one]
NiV-pVSV
  IC50: 2650 nM
  antiviral activity in SAR discussion: retained activity, albeit at slightly reduced levels
NiV-pVSV; [2]
  IC50: 4100 nM

## CCN1C(=O)/C(=C/c2cccc(-c3ccccc3)c2)SC1=S [LJ-019, (Z)-5-(Biphenyl-3-ylmethylene)-3-ethyl-2-thioxothiazolidin-4-one]
NiV-pVSV
  IC50 (μM): Inactive
  antiviral activity in SAR discussion: inactive

## CCN1C(=O)/C(=C/c2ccc(-c3ccccc3[N+]#N)o2)SC1=S.F[B-](F)(F)F [LJ-020, (Z)-3-Ethyl-5-[5-(2-diazoniophenyl)-2-furyl]methylene-4-oxothiazolidine-2-thione tetrafluoroborate]
NiV-pVSV
  antiviral activity in SAR discussion: tolerated but led to generally lower activity

## CCN1C(=O)/C(=C/c2cnc(-c3ccccc3)o2)SC1=S [LJ-023, (Z)-3-Ethyl-5-((2-phenyloxazol-5-yl)methylene)-2-thioxothiazolidin-4-one]
NiV-pVSV
  IC50: 2400 nM
  antiviral activity in SAR discussion: retained activity, albeit at slightly reduced levels
NiV-pVSV; [2]
  IC50: 2500 nM

## O=C1NC2CSC(CCCCC(=O)OCCCN3C(=O)/C(=C/c4ccc(-c5ccccc5)o4)SC3=S)C2N1 (stereo not drawn) [LJ-024]
NiV-pVSV
  antiviral activity in SAR discussion: retained good activity
NiV-pVSV; read-out: IC50
  IC50: 1900 nM and 1770 nM

## C=CCN1C(=O)S/C(=C\c2ccc(-c3ccccc3)o2)C1=O [LJ-025, (Z)-3-Allyl-5-((5-phenylfuran-2-yl)methylene)thiazolidine-2,4-dione]
NiV-pVSV
  IC50 (μM): Inactive
  antiviral activity in SAR discussion: completely inactive both in vitro and in vivo
pVSV particles
  virion membrane morphology by EM: not

## C=CCN1C(=S)S/C(=C\c2ccc(-c3ccccc3)o2)C1=S [LJ-027]
NiV-pVSV; read-out: IC50
  IC50: 900 nM

## CCN1C(=S)S/C(=C\c2ccc(-c3ccccc3[N+](=O)[O-])o2)C1=S [LJ-028]
NiV-pVSV; read-out: IC50
  IC50: 2010 nM

## C=CCN1C(=O)S/C(=C\c2ccc(-c3ccccc3)o2)C1=S [LJ-029, (Z)-3-allyl-5-(5-phenyl-2-furyl)methylene-2-oxothiazolidine-4-thione]
NiV-pVSV; [2]
  IC50: 4320 nM

## CCN1C(=O)S/C(=C\c2ccc(-c3ccccc3[N+](=O)[O-])o2)C1=S [LJ-030, (Z)-3-ethyl-5-((5-(2-nitrophenyl)furan-2-yl)methylene)-2-oxothiazolidin-4-thione]
NiV-pVSV; [2]
  IC50: 490 nM

## O=C1NC(=S)S/C1=C\c1ccc(-c2ccccc2)o1 [LJ-031, (Z)-5-(5-phenyl-2-furyl)methylene-4-oxothiazolidine-2-thione]
NiV-pVSV; [2]
  IC50: 1040 nM

## C#CCN1C(=O)/C(=C/c2ccc(-c3ccccc3)o2)SC1=S [LJ-032, (Z)-3-(2-propynyl)-5-(5-phenyl-2-furyl)methylene-4-oxothiazolidine-2-thione]
NiV-pVSV; [2]
  IC50: 1030 nM

## C=CCN1C(=O)C(Cc2ccc(-c3ccccc3)o2)SC1=S (stereo not drawn) [LJ-033, 3-Allyl-5-((5-phenylfuran-2-yl)methyl)-4-oxothiazolidin-2-thione]
NiV-pVSV
  IC50 (μM): Inactive
  antiviral activity in SAR discussion: completely inactive

## CC(=O)NCCCN1C(=O)/C(=C/c2ccc(-c3ccccc3)o2)SC1=S [LJ-034, (Z)—N-(3-(4-Oxo-5-((5-phenylfuran-2-yl)methylene)-2-thioxothiazolidin-3-yl)propyl)acetamide]
NiV-pVSV
  IC50 (μM): Inactive

## NCCCN1C(=O)/C(=C/c2ccc(-c3ccccc3)o2)SC1=S [LJ-035, (Z)-3-(3-Aminopropyl)-5-((5-phenylfuran-2-yl)methylene)-4-oxothiazolidin-2-thione]
NiV-pVSV
  IC50 (μM): Inactive

## CC(C)(C)OC(=O)NCCCN1C(=O)/C(=C/c2ccc(-c3ccccc3)o2)SC1=S [LJ-036, (Z)-tert-Butyl 3-(4-oxo-5-((5-phenylfuran-2-yl)methylene)-2-thioxothiazolidine-3-yl)propyl carbamate]
NiV-pVSV; read-out: IC50
  IC50: 740 nM

## CCCCCCCCCCCCCCCCCCCCCCO [n-docosanol]
Enveloped viruses
  IC50: millimolar

## (Z)-3-(2,4-Dioxo-5-((5-phenylfuran-2-yl)methylene)thioxothiazolidin-3-yl) propyl-5-(2-oxohexahydro-1H-thieno[3,4-d]imidazol-4-yl)pentanoate [LJ-037]
NiV-pVSV
  IC50 (μM): Inactive

## lysophosphotidylcholine [LPC]
[1]
  required molar concentration (total lipid content): ≥ 10%
